Source: ChEMBL document CHEMBL1201862, “PubChem BioAssay data set” (2004)
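Interpolation was linear, between the two tested concentrations surrounding the appropriate level; five concentrations were tested over 48 hours in 96-well plates. GI50 = concentration required for 50% inhibition of growth.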 Active and inactive are the calls of the source. Rule as the data show it: active = GI50 up to about 1.1 µM and inactive = higher.

How the values were obtained:
Assay in all cases: growth of human tumour cells (NCI), 48 h
TK-10 = system: TK-10
SF-295 = system: SF-295
CCRF-CEM = system: CCRF-CEM
NCI-H23 = system: NCI-H23
UACC-257 = system: UACC-257
K562 = system: K562
Malme-3M = system: Malme-3M
HCC 2998 = system: HCC 2998
OVCAR-8 = system: OVCAR-8
EKVX = system: EKVX
HCT-116 = system: HCT-116
HOP-92 = system: HOP-92
786-0 = system: 786-0
MDA-N = system: MDA-N
CAKI-1 = system: CAKI-1
HT-29 = system: HT-29
NCI-H226 = system: NCI-H226
T47D = system: T47D
SF-539 = system: SF-539
SK-MEL-28 = system: SK-MEL-28
SR = system: SR
MOLT-4 = system: MOLT-4
HL-60 = system: HL-60
M14 = system: M14
HOP-62 = system: HOP-62
RXF 393 = system: RXF 393
KM12 = system: KM12
COLO 205 = system: COLO 205
RPMI-8226 = system: RPMI-8226
NCI/ADR-RES = system: NCI/ADR-RES
OVCAR-4 = system: OVCAR-4
SN12C = system: SN12C
NCI-H460 = system: NCI-H460
SW-620 = system: SW-620
U-251 = system: U-251
BT-549 = system: BT-549
NCI-H522 = system: NCI-H522
HCT-15 = system: HCT-15
OVCAR-5 = system: OVCAR-5
SNB-19 = system: SNB-19
UACC-62 = system: UACC-62
MDA-MB-231 = system: MDA-MB-231
DU-145 = system: DU-145
SF-268 = system: SF-268
OVCAR-3 = system: OVCAR-3
PC-3 = system: PC-3
SK-OV-3 = system: SK-OV-3
UO-31 = system: UO-31
MCF7 = system: MCF7
SNB-75 = system: SNB-75
SK-MEL-5 = system: SK-MEL-5
ACHN = system: ACHN
MDA-MB-435 = system: MDA-MB-435
LOX IMVI = system: LOX IMVI
A549 = system: A549
Hs-578T = system: Hs-578T
IGROV-1 = system: IGROV-1
A498 = system: A498
SK-MEL-2 = system: SK-MEL-2

Question: With Cc1nc(N/N=C/c2ccccc2Cl)[nH]c(=O)c1CCO as the molecule, how does the GI50 (TK-10) read?
Answer: The GI50 was 76 µM (inactive).

Question: What about the GI50 (SF-295) of the same molecule?
Answer: The GI50 was 25.2 µM (inactive).

Question: What about the GI50 (CCRF-CEM) of the same molecule?
Answer: Its GI50 is > 100 µM (inactive).

Question: What about the GI50 (NCI-H23) of the same molecule?
Answer: The GI50 was 35.8 µM (inactive).

Question: And the GI50 (UACC-257)?
Answer: The GI50 was > 100 µM (inactive).

Question: What about the GI50 (K562) of the same molecule?
Answer: Its GI50 is > 100 µM (inactive).

Question: What about the GI50 (Malme-3M) of the same molecule?
Answer: The GI50 was 22 µM (inactive).

Question: What about the GI50 (HCC 2998) of the same molecule?
Answer: Its GI50 is > 100 µM (inactive).

Question: What about the GI50 (OVCAR-8) of the same molecule?
Answer: The GI50 was 22 µM (inactive).

Question: And the GI50 (EKVX)?
Answer: Its GI50 is 86.9 µM (inactive).

Question: And the GI50 (HCT-116)?
Answer: The GI50 was 38.8 µM (inactive).

Question: And the GI50 (HOP-92)?
Answer: Its GI50 is 21.5 µM (inactive).

Question: What about the GI50 (786-0) of the same molecule?
Answer: The GI50 was > 100 µM (inactive).

Question: And the GI50 (MDA-N)?
Answer: Its GI50 is > 100 µM (inactive).

Question: What about the GI50 (CAKI-1) of the same molecule?
Answer: Its GI50 is > 10 µM (inactive).

Question: What about the GI50 (HT-29) of the same molecule?
Answer: Its GI50 is > 100 µM (inactive).

Question: What about the GI50 (NCI-H226) of the same molecule?
Answer: The GI50 was > 100 µM (inactive).

Question: What about the GI50 (T47D) of the same molecule?
Answer: Its GI50 is 24.8 µM (inactive).

Question: And the GI50 (SF-539)?
Answer: Its GI50 is 77.4 µM (inactive).

Question: What about the GI50 (SK-MEL-28) of the same molecule?
Answer: The GI50 was 73.8 µM (inactive).

Question: What about the GI50 (SR) of the same molecule?
Answer: Its GI50 is > 100 µM (inactive).

Question: And the GI50 (MOLT-4)?
Answer: The GI50 was > 100 µM (inactive).

Question: What about the GI50 (HL-60) of the same molecule?
Answer: Its GI50 is > 100 µM (inactive).

Question: What about the GI50 (M14) of the same molecule?
Answer: Its GI50 is 87.7 µM (inactive).

Question: And the GI50 (HOP-62)?
Answer: Its GI50 is 21.1 µM (inactive).

Question: And the GI50 (RXF 393)?
Answer: Its GI50 is 25.9 µM (inactive).

Question: What about the GI50 (KM12) of the same molecule?
Answer: The GI50 was 59.7 µM (inactive).

Question: What about the GI50 (COLO 205) of the same molecule?
Answer: The GI50 was > 100 µM (inactive).

Question: What about the GI50 (RPMI-8226) of the same molecule?
Answer: Its GI50 is 25.9 µM (inactive).

Question: And the GI50 (NCI/ADR-RES)?
Answer: Its GI50 is 61.1 µM (inactive).

Question: And the GI50 (OVCAR-4)?
Answer: The GI50 was 87.3 µM (inactive).

Question: What about the GI50 (SN12C) of the same molecule?
Answer: The GI50 was 47.4 µM (inactive).

Question: And the GI50 (NCI-H460)?
Answer: The GI50 was 80 µM (inactive).

Question: And the GI50 (SW-620)?
Answer: The GI50 was > 100 µM (inactive).

Question: And the GI50 (U-251)?
Answer: Its GI50 is 49.3 µM (inactive).

Question: And the GI50 (BT-549)?
Answer: The GI50 was 57.1 µM (inactive).

Question: What about the GI50 (NCI-H522) of the same molecule?
Answer: Its GI50 is 17.9 µM (inactive).

Question: And the GI50 (HCT-15)?
Answer: Its GI50 is 81.1 µM.

Question: What about the GI50 (OVCAR-5) of the same molecule?
Answer: Its GI50 is > 100 µM (inactive).

Question: And the GI50 (SNB-19)?
Answer: Its GI50 is 51.6 µM (inactive).

Question: And the GI50 (UACC-62)?
Answer: The GI50 was 34.4 µM (inactive).

Question: And the GI50 (MDA-MB-231)?
Answer: Its GI50 is 71 µM (inactive).

Question: And the GI50 (DU-145)?
Answer: The GI50 was > 100 µM (inactive).

Question: And the GI50 (SF-268)?
Answer: The GI50 was 33.5 µM (inactive).

Question: What about the GI50 (OVCAR-3) of the same molecule?
Answer: The GI50 was 19.6 µM (inactive).

Question: What about the GI50 (PC-3) of the same molecule?
Answer: The GI50 was > 100 µM (inactive).

Question: What about the GI50 (SK-OV-3) of the same molecule?
Answer: The GI50 was 23.1 µM (inactive).

Question: And the GI50 (UO-31)?
Answer: Its GI50 is > 100 µM (inactive).

Question: What about the GI50 (MCF7) of the same molecule?
Answer: The GI50 was 36.2 µM (inactive).

Question: What about the GI50 (SNB-75) of the same molecule?
Answer: The GI50 was 17.2 µM (inactive).

Question: What about the GI50 (SK-MEL-5) of the same molecule?
Answer: Its GI50 is > 100 µM (inactive).

Question: And the GI50 (ACHN)?
Answer: The GI50 was > 100 µM (inactive).

Question: What about the GI50 (MDA-MB-435) of the same molecule?
Answer: Its GI50 is > 100 µM (inactive).

Question: And the GI50 (LOX IMVI)?
Answer: Its GI50 is > 100 µM (inactive).

Question: What about the GI50 (A549) of the same molecule?
Answer: The GI50 was > 100 µM (inactive).

Question: What about the GI50 (Hs-578T) of the same molecule?
Answer: Its GI50 is 29.4 µM (inactive).

Question: And the GI50 (IGROV-1)?
Answer: Its GI50 is 34 µM (inactive).

Question: What does the source list for COC(=O)c1c(O)ccc2c1c1c(n2Cc2ccccc2OC)C(=O)c2ccccc2C1?
Answer: GI50 (TK-10): > 100 µM (inactive); GI50 (CCRF-CEM): 24.6 µM (inactive); GI50 (NCI-H23): 74.8 µM (inactive); GI50 (UACC-257): 34.7 µM (inactive); GI50 (K562): 70.5 µM (inactive); GI50 (Malme-3M): > 100 µM (inactive); GI50 (OVCAR-8): 91.2 µM (inactive); GI50 (HCT-116): 27.8 µM (inactive); GI50 (786-0): 78.9 µM (inactive); GI50 (MDA-N): 77.1 µM (inactive); GI50 (CAKI-1): 65.3 µM (inactive); GI50 (HT-29): 36.5 µM (inactive); GI50 (NCI-H226): 70.3 µM (inactive); GI50 (T47D): 81.3 µM (inactive); GI50 (A498): > 100 µM (inactive); GI50 (SF-539): 63.8 µM (inactive); GI50 (SK-MEL-28): > 100 µM (inactive); GI50 (SR): 77.3 µM (inactive); GI50 (MOLT-4): 48.3 µM (inactive); GI50 (HL-60): > 100 µM (inactive); GI50 (M14): 46.2 µM (inactive); GI50 (HOP-62): 75.5 µM (inactive); GI50 (RXF 393): 26.5 µM (inactive); GI50 (KM12): 93.5 µM (inactive); GI50 (COLO 205): 15.5 µM (inactive); GI50 (RPMI-8226): 22.4 µM (inactive); GI50 (NCI/ADR-RES): 29.3 µM (inactive); GI50 (OVCAR-4): 29.7 µM (inactive); GI50 (SN12C): 22.8 µM (inactive); GI50 (NCI-H460): 29 µM (inactive); GI50 (SW-620): 81.1 µM (inactive); GI50 (U-251): 63.4 µM (inactive); GI50 (SK-MEL-2): 87.5 µM (inactive); GI50 (BT-549): > 100 µM (inactive); GI50 (HCT-15): 63.4 µM; GI50 (SNB-19): > 100 µM (inactive); GI50 (UACC-62): 76.4 µM (inactive); GI50 (MDA-MB-231): 44.1 µM (inactive); GI50 (DU-145): > 100 µM (inactive); GI50 (SF-268): 40.5 µM (inactive); GI50 (OVCAR-3): 88.7 µM (inactive); GI50 (PC-3): 24 µM (inactive); GI50 (SK-OV-3): 78.5 µM (inactive); GI50 (UO-31): 44.5 µM (inactive); GI50 (MCF7): 23.7 µM (inactive); GI50 (SNB-75): 61.9 µM (inactive); GI50 (SK-MEL-5): 55.6 µM (inactive); GI50 (MDA-MB-435): 45.3 µM (inactive); GI50 (LOX IMVI): 47.2 µM (inactive); GI50 (A549): 49.1 µM (inactive); GI50 (Hs-578T): > 100 µM (inactive); GI50 (IGROV-1): 63.1 µM (inactive)
